Among the data in ChEMBL document CHEMBL6109068, “Design, synthesis, and biological evaluation of 5'-deoxy (N)-methanocarbanucleoside derivatives as A3 adenosine receptor ligands” (Bioorg Med Chem Lett, 2025) are inhibition and Ki values, retold here.

Test [1] has as its target T1, Adenosine receptor A3 (Homo sapiens) (UniProt P0DMS8).
T1 sequence (whole entry): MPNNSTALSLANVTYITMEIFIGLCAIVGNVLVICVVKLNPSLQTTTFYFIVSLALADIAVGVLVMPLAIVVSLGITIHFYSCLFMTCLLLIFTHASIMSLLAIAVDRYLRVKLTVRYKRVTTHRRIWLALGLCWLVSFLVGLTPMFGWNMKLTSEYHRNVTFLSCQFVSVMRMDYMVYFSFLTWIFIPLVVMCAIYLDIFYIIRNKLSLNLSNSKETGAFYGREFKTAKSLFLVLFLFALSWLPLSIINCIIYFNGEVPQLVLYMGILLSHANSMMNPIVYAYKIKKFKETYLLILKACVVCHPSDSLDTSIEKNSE
Briefly: Displacement of [3H]-NECA from human A3AR stably expressed in HeLa cell membrane at 10 uM relative to control. It counts as cell membranes. (In general: In a radioligand displacement assay an active substance lowers the binding of a labelled ligand.)

The target of the next test is T2, Adenosine receptor A3 (Homo sapiens, UniProt P0DMS8).
T2 sequence (P0DMS8 whole entry): T1 sequence (whole entry)
Put plainly: Displacement of [3H]-NECA from human A3AR stably expressed in HeLa cell membrane. It counts as cell membranes.

What is called inhibition is the percentage by which the read-out fell short of the control. A lower inhibition goes with a response near the control. On to `C[C@]12C[C@@H]1[C@@H](n1cnc3c(N)nc(Cl)nc31)[C@H](O)[C@@H]2O`, for which, in test [1], the inhibition turned out to be 89%.

As a reminder, the Ki is the dissociation constant of the complex between target and ligand, obtained from inhibition or displacement. A high value points to weaker binding. For the molecule `C[C@]12C[C@@H]1[C@@H](n1cnc3c(NCc4cccc(F)c4)nc(Cl)nc31)[C@H](O)[C@@H]2O`, the inhibitory constant (Ki) on Adenosine receptor A3 was 124 nM.

Molecule `C[C@]12C[C@@H]1[C@@H](n1cnc3c(NCc4cccc(Cl)c4)ncnc31)[C@H](O)[C@@H]2O` returned a Ki on Adenosine receptor A3 of 70.3 nM.
